Measured values as given in PubChem BioAssay (NCI).
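Cells were grown in 96-well plates and exposed to each compound for 48 hours at five concentrations; endpoints were interpolated linearly between bracketing concentrations, or set to the highest concentration if not reached. GI50 is the concentration that inhibits growth by half. TGI: total growth inhibition.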

Experiments:
Experiment in all cases: growth of human tumour cells (NCI), 48 h
[1] = tested on: NCI-H522 lung
[2] = tested on: NCI-H460 lung
[3] = tested on: SW-620 colon
[4] = tested on: BT-549 breast
[5] = tested on: M14 melanoma
[6] = tested on: A498 renal
[7] = tested on: HS 578T breast
[8] = tested on: HCT-15 colon
[9] = tested on: PC-3 prostate
[10] = tested on: MALME-3M melanoma
[11] = tested on: RPMI-8226 leukemia
[12] = tested on: HOP-62 NSCLC
[13] = tested on: OVCAR-3 ovarian
[14] = tested on: SK-OV-3 ovarian
[15] = tested on: OVCAR-5 ovarian
[16] = tested on: HCC-2998 colon
[17] = tested on: SN12C renal
[18] = tested on: HCT-116 colon
[19] = tested on: LOX IMVI melanoma
[20] = tested on: 786-0 renal
[21] = tested on: NCI-H226 lung
[22] = tested on: MDA-MB-231 breast
[23] = tested on: CCRF-CEM leukemia
[24] = tested on: OVCAR-4 ovarian
[25] = tested on: UO-31 renal
[26] = tested on: A549 NSCLC
[27] = tested on: SNB-19 CNS
[28] = tested on: MCF7 breast
[29] = tested on: SF-268 CNS
[30] = tested on: IGROV1 ovarian
[31] = tested on: TK-10 renal
[32] = tested on: T-47D breast
[33] = tested on: NCI/ADR-RES ovarian
[34] = tested on: SK-MEL-28 melanoma
[35] = tested on: HL-60(TB) leukemia
[36] = tested on: HT29 colon
[37] = tested on: HOP-92 NSCLC
[38] = tested on: SK-MEL-2 melanoma
[39] = tested on: DU-145 prostate
[40] = tested on: CAKI-1 renal
[41] = tested on: OVCAR-8 ovarian
[42] = tested on: MOLT-4 leukemia
[43] = tested on: U251 CNS
[44] = tested on: UACC-62 melanoma
[45] = tested on: EKVX NSCLC
[46] = tested on: SK-MEL-5 melanoma
[47] = tested on: KM12 colon
[48] = tested on: COLO 205 colon
[49] = tested on: RXF 393 renal
[50] = tested on: MDA-MB-435
[51] = tested on: ACHN renal
[52] = tested on: SF-539 CNS
[53] = tested on: SNB-75 CNS
[54] = tested on: K-562 leukemia
[55] = tested on: NCI-H23 lung
[56] = tested on: SF-295 CNS

Molecule `COc1cc(-c2csc(NC(=O)Nc3ccc(Cl)c(C(F)(F)F)c3)n2)cc(OC)c1OC` has a GI50 [1] of 1100 nM, a TGI [1] of 3570 nM and a GI50 [2] of 1370 nM. It also gave a TGI [2] of 3500 nM, a GI50 [3] of 2060 nM and a TGI [3] of 10500 nM. For the same molecule, the GI50 [4] was 1940 nM, the TGI [4] was 5550 nM and the GI50 [5] was 2260 nM. For the same molecule, the TGI [5] was 7300 nM, the GI50 [6] was 260 nM and the TGI [6] was 1710 nM. The GI50 [7] was 1670 nM, the TGI [7] was 5470 nM and the GI50 [8] was 1540 nM. For the same molecule, the TGI [8] was 10700 nM, the GI50 [9] was 494 nM and the TGI [9] was 3360 nM. The GI50 [10] was 1970 nM, the TGI [10] was 5570 nM and the GI50 [11] was 573 nM. For the same molecule, the TGI [11] was 4100 nM, the GI50 [12] was 1700 nM and the TGI [12] was 4570 nM. The GI50 [13] was 1160 nM, the TGI [13] was 3120 nM and the GI50 [14] was 1980 nM. It also gave a TGI [14] of 4550 nM, a GI50 [15] of 2350 nM and a TGI [15] of 10500 nM. For the same molecule, the GI50 [16] was 2950 nM, the TGI [16] was 10600 nM and the GI50 [17] was 1760 nM. For the same molecule, the TGI [17] was 6600 nM, the GI50 [18] was 1420 nM and the TGI [18] was 7930 nM. The GI50 [19] was 1530 nM, the TGI [19] was 3480 nM and the GI50 [20] was 2080 nM. The TGI [20] was 6470 nM, the GI50 [21] was 1740 nM and the TGI [21] was 6030 nM. For the same molecule, the GI50 [22] was 1470 nM, the TGI [22] was 3930 nM and the GI50 [23] was 2240 nM. The TGI [23] was 12800 nM, the GI50 [24] was 1150 nM and the TGI [24] was 4530 nM. It also gave a GI50 [25] of 1650 nM, a TGI [25] of 5640 nM and a GI50 [26] of 1380 nM. For the same molecule, the TGI [26] was 4750 nM, the GI50 [27] was 1930 nM and the TGI [27] was 6970 nM. The GI50 [28] was 1870 nM, the TGI [28] was 10100 nM and the GI50 [29] was 2250 nM. For the same molecule, the TGI [29] was 10400 nM, the GI50 [30] was 1830 nM and the TGI [30] was 9300 nM. For the same molecule, the GI50 [31] was 1780 nM, the TGI [31] was 5030 nM and the GI50 [32] was 885 nM. For the same molecule, the TGI [32] was 4070 nM, the GI50 [33] was 1500 nM and the TGI [33] was 5530 nM. For the same molecule, the GI50 [34] was 2600 nM, the TGI [34] was 11300 nM and the GI50 [35] was 1760 nM. It also gave a TGI [35] of 6050 nM, a GI50 [36] of 1800 nM and a TGI [36] of 4680 nM. For the same molecule, the GI50 [37] was 357 nM, the TGI [37] was 2220 nM and the GI50 [38] was 1800 nM. It also gave a TGI [38] of 4570 nM, a GI50 [39] of 1790 nM and a TGI [39] of 6670 nM. It also gave a GI50 [40] of 1370 nM, a TGI [40] of 3620 nM and a GI50 [41] of 1380 nM. For the same molecule, the TGI [41] was 3660 nM, the GI50 [42] was 1130 nM and the TGI [42] was 4350 nM. It also gave a GI50 [43] of 1410 nM, a TGI [43] of 3190 nM and a GI50 [44] of 1240 nM. The TGI [44] was 3750 nM, the GI50 [45] was 1190 nM and the TGI [45] was 7030 nM. It also gave a GI50 [46] of 1180 nM, a TGI [46] of 2440 nM and a GI50 [47] of 764 nM. For the same molecule, the TGI [47] was 4930 nM, the GI50 [48] was 1650 nM and the TGI [48] was 3460 nM. It also gave a GI50 [49] of 1600 nM, a TGI [49] of 3900 nM and a GI50 [50] of 1810 nM. It also gave a TGI [50] of 4840 nM, a GI50 [51] of 1270 nM and a TGI [51] of 3570 nM. For the same molecule, the GI50 [52] was 1890 nM, the TGI [52] was 5470 nM and the GI50 [53] was 1210 nM. It also gave a TGI [53] of 3170 nM, a GI50 [54] of 1160 nM and a TGI [54] of 11300 nM. The GI50 [55] was 1470 nM, the TGI [55] was 6060 nM and the GI50 [56] was 1130 nM. It also gave a TGI [56] of 2640 nM.
